Data: paper PMC7463651, “Phase I/Ib Study of Tenalisib (RP6530), a Dual PI3K δ/γ Inhibitor in Patients with Relapsed/Refractory T-Cell Lymphoma” (Cancers, 2020)
Several values for one entry are separate records, joined by “and”; a condition that tells them apart may be missing. Identical values can stand only once.

Test system: patients with relapsed/refractory T Cell Lymphoma
Assay: Safety assessment (adverse events per CTCAE v4.03, DLT/MTD) in phase I/Ib study
Type: in vivo, human
Protocol: Protocol defined hematological or non-hematological toxicity was considered dose-limiting if it occurred during the first cycle (within the first 28 d) and was considered related to Tenalisib. Hematological DLTs was defined as Grade 4 anemia; Grade 4 neutropenia for >7 days, or Grade ≥3 febrile neutropenia with fever >38.5 °C [101 °F]; Grade 4 thrombocytopenia for >7 days, or Grade ≥3 thrombocytopenia associated with Grade >2 bleeding.
Safety assessment included adverse event (AE) and serious adverse events (SAE) as per Common Terminology Criteria for Adverse Events (CTCAE), Version 4.03. During dose escalation, safety assessments were performed at weekly intervals during Cycle 1 and Cycle 2 and at two weekly intervals during Cycle 3 and 4. After completion of Cycle 4, safety assessments were performed on Day 1 of each subsequent cycle. In dose expansion phase, all safety assessments were performed on Day 1 of each cycle.

[1] = Relationship-all, Dose Expansion (N = 39)
[2] = Relationship-all, Total (N = 58)

For `CC[C@H](Nc1ncnc2[nH]cnc12)c1oc2ccccc2c(=O)c1-c1cccc(F)c1` [Tenalisib], the “Pyrexia: patients with event” value [1] was 9 (23.1%) n (%), the “Rash: count of events” value [1] was 6 and the “Rash: patients with event” value [1] was 3 (7.7%) n (%). The “Tachycardia: count of events” value [1] was 3, the “Tachycardia: patients with event” value [1] was 3 (7.7%) n (%) and the “Vomiting: count of events” value [1] was 6. The “Vomiting: patients with event” value [1] was 5 (12.8%) n (%), the “Abdominal pain: count of events” value [2] was 9 and the “Abdominal pain: patients with event” value [2] was 8 (13.8%) n (%). For the same molecule, the “Alanine aminotransferase increased: count of events” value [2] was 33, the “Alanine aminotransferase increased: patients with event” value [2] was 20 (34.5%) n (%) and the “Anemia: count of events” value [2] was 16. For the same molecule, the “Anemia: patients with event” value [2] was 9 (15.5%) n (%), the “Aspartate aminotransferase increased: count of events” value [2] was 37 and the “Aspartate aminotransferase increased: patients with event” value [2] was 21 (36.2%) n (%). The “Blood creatinine increased: count of events” value [2] was 7, the “Blood creatinine increased: patients with event” value [2] was 7 (12.1%) n (%) and the “Blood thyroid stimulating hormone increased: count of events” value [2] was 7. The “Blood thyroid stimulating hormone increased: patients with event” value [2] was 6 (10.3%) n (%), the “Constipation: count of events” value [2] was 10 and the “Constipation: patients with event” value [2] was 9 (15.5%) n (%). For the same molecule, the “Cough: count of events” value [2] was 16, the “Cough: patients with event” value [2] was 13 (22.4%) n (%) and the “Decreased appetite: count of events” value [2] was 13. The “Decreased appetite: patients with event” value [2] was 12 (20.7%) n (%), the “Dehydration: count of events” value [2] was 18 and the “Dehydration: patients with event” value [2] was 13 (22.4%) n (%). For the same molecule, the “Diarrhea: count of events” value [2] was 25, the “Diarrhea: patients with event” value [2] was 19 (32.8%) n (%) and the “Dizziness: count of events” value [2] was 12. For the same molecule, the “Dizziness: patients with event” value [2] was 10 (17.2%) n (%), the “Dry skin: count of events” value [2] was 8 and the “Dry skin: patients with event” value [2] was 7 (12.1%) n (%). For the same molecule, the “Dyspnea: count of events” value [2] was 7, the “Dyspnea: patients with event” value [2] was 7 (12.1%) n (%) and the “Fatigue: count of events” value [2] was 27. For the same molecule, the “Fatigue: patients with event” value [2] was 26 (45%) n (%) and 26 (44.8%) n (%), the “Gamma-glutamyl transferase increased: count of events” value [2] was 11 and the “Gamma-glutamyl transferase increased: patients with event” value [2] was 8 (13.8%) n (%). The “Grade 3/4 Alanine aminotransferase increased: count of events” value [2] was 12, the “Grade 3/4 Alanine aminotransferase increased: patients with event” value [2] was 11 (19.0%) n (%) and the “Grade 3/4 Anemia: count of events” value [2] was 8. The “Grade 3/4 Anemia: patients with event” value [2] was 5 (8.6%) n (%), the “Grade 3/4 Aspartate aminotransferase increased: count of events” value [2] was 12 and the “Grade 3/4 Aspartate aminotransferase increased: patients with event” value [2] was 11 (19.0%) n (%). The “Grade 3/4 Fatigue: count of events” value [2] was 4, the “Grade 3/4 Fatigue: patients with event” value [2] was 3 (5.2%) n (%) and the “Grade 3/4 Hyponatremia: count of events” value [2] was 4. For the same molecule, the “Grade 3/4 Hyponatremia: patients with event” value [2] was 4 (6.9%) n (%), the “Grade 3/4 Neutropenia: count of events” value [2] was 4 and the “Grade 3/4 Neutropenia: patients with event” value [2] was 4 (6.9%) n (%). The “Grade 3/4 Thrombocytopenia: count of events” value [2] was 3, the “Grade 3/4 Thrombocytopenia: patients with event” value [2] was 3 (5.2%) n (%) and the “Headache: count of events” value [2] was 13. For the same molecule, the “Headache: patients with event” value [2] was 10 (17.2%) n (%), the “Hypokalemia: count of events” value [2] was 10 and the “Hypokalemia: patients with event” value [2] was 7 (12.1%) n (%). For the same molecule, the “Hyponatremia: count of events” value [2] was 9, the “Hyponatremia: patients with event” value [2] was 8 (13.8%) n (%) and the “Insomnia: count of events” value [2] was 7. The “Insomnia: patients with event” value [2] was 6 (10.3%) n (%), the “Muscle spasms: count of events” value [2] was 10 and the “Muscle spasms: patients with event” value [2] was 9 (15.5%) n (%). For the same molecule, the “Nausea: count of events” value [2] was 16, the “Nausea: patients with event” value [2] was 15 (25.9%) n (%) and the “Pruritus: count of events” value [2] was 10. The “Pruritus: patients with event” value [2] was 9 (15.5%) n (%), the “Psychiatric disorders: count of events” value [2] was 18 and the “Psychiatric disorders: patients with event” value [2] was 11 (19.0%) n (%). The “Pyrexia: count of events” value [2] was 21, the “Pyrexia: patients with event” value [2] was 13 (22.4%) n (%) and the “Rash: count of events” value [2] was 10. For the same molecule, the “Rash: patients with event” value [2] was 6 (10.3%) n (%), the “Tachycardia: count of events” value [2] was 9 and the “Tachycardia: patients with event” value [2] was 8 (13.8%) n (%). The “Vomiting: count of events” value [2] was 11, the “Vomiting: patients with event” value [2] was 9 (15.5%) n (%) and the “Fatigue, most frequently reported TEAE” value (all patients) was 45%. The “Transaminase elevations, most frequently reported related TEAE” value (all patients) was 33%, the “Late onset toxicities like colitis, pneumonitis, and opportunistic infections” value (also in patients treated for more than six months) was “not seen” and the “Alanine aminotransferase increased: count of events” value (human, in vivo) was 13. For the same molecule, the “Alanine aminotransferase increased: patients with event” value (human, in vivo) was 6 (31.6%) n (%), the “Anemia, Grade 3 TEAE” value (human, in vivo) was 8.6% and the “Anemia: count of events” value (human, in vivo) was 1. For the same molecule, the “Anemia: patients with event” value (human, in vivo) was 1 (5.3%) n (%), the “Aspartate aminotransferase increased: count of events” value (human, in vivo) was 15 and the “Aspartate aminotransferase increased: patients with event” value (human, in vivo) was 6 (31.6%) n (%). For the same molecule, the “Blood alkaline phosphatase increased: count of events” value (human, in vivo) was 1, the “Blood alkaline phosphatase increased: patients with event” value (human, in vivo) was 1 (5.3%) n (%) and the “Blood creatinine increased: patients with event” value (human, in vivo) was 1 (5.3%) n (%). For the same molecule, the “Blood thyroid stimulating hormone increased: count of events” value (human, in vivo) was 2, the “Blood thyroid stimulating hormone increased: patients with event” value (human, in vivo) was 2 (10.5%) n (%) and the “Constipation: count of events” value (human, in vivo) was 5. The “Constipation: patients with event” value (human, in vivo) was 4 (21.1%) n (%), the “Cough: count of events” value (human, in vivo) was 7 and the “Cough: patients with event” value (human, in vivo) was 6 (31.6%) n (%). For the same molecule, the “Decreased appetite: count of events” value (human, in vivo) was 5, the “Decreased appetite: patients with event” value (human, in vivo) was 5 (26.3%) n (%) and the “Discontinuation due to adverse events” value (human, in vivo) was 9%. The “Dry skin: count of events” value (human, in vivo) was 2, the “Dry skin: patients with event” value (human, in vivo) was 2 (10.5%) n (%) and the “Dyspepsia: count of events” value (human, in vivo) was 1. For the same molecule, the “Dyspepsia: patients with event” value (human, in vivo) was 1 (5.3%) n (%), the “Dyspnea: count of events” value (human, in vivo) was 5 and the “Dyspnea: patients with event” value (human, in vivo) was 5 (26.3%) n (%). The “Erythema: count of events” value (human, in vivo) was 1, the “Erythema: patients with event” value (human, in vivo) was 1 (5.3%) n (%) and the “Gamma-glutamyl transferase increased: count of events” value (human, in vivo) was 2. For the same molecule, the “Gamma-glutamyl transferase increased: patients with event” value (human, in vivo) was 2 (10.5%) n (%), the “Gamma-glutamyltransferase increased: count of events” value (human, in vivo) was 2 and the “Gamma-glutamyltransferase increased: patients with event” value (human, in vivo) was 2 (10.5%) n (%). The “Grade 3/4 Alanine aminotransferase increased: count of events” value (human, in vivo) was 7, the “Grade 3/4 Alanine aminotransferase increased: patients with event” value (human, in vivo) was 6 (15.4%) n (%) and the “Grade 3/4 Anemia: count of events” value (human, in vivo) was 6. The “Grade 3/4 Anemia: patients with event” value (human, in vivo) was 3 (7.7%) n (%), the “Grade 3/4 Aspartate aminotransferase increased: count of events” value (human, in vivo) was 8 and the “Grade 3/4 Aspartate aminotransferase increased: patients with event” value (human, in vivo) was 7 (17.9%) n (%). For the same molecule, the “Grade 3/4 Fatigue: count of events” value (human, in vivo) was 3, the “Grade 3/4 Fatigue: patients with event” value (human, in vivo) was 2 (5.1%) n (%) and the “Grade 3/4 Hyponatremia: count of events” value (human, in vivo) was 2. The “Grade 3/4 Hyponatremia: patients with event” value (human, in vivo) was 2 (5.1%) n (%), the “Grade 3/4 Neutropenia: count of events” value (human, in vivo) was 2 and the “Grade 3/4 Neutropenia: patients with event” value (human, in vivo) was 2 (5.1%) n (%). For the same molecule, the “Grade 3/4 Thrombocytopenia: count of events” value (human, in vivo) was 2, the “Grade 3/4 Thrombocytopenia: patients with event” value (human, in vivo) was 2 (5.1%) n (%) and the “Headache: count of events” value (human, in vivo) was 4. The “Headache: patients with event” value (human, in vivo) was 3 (15.8%) n (%), the “Hypokalemia: count of events” value (human, in vivo) was 5 and the “Hypokalemia: patients with event” value (human, in vivo) was 4 (21.1%) n (%). For the same molecule, the “Hyponatremia, Grade 3 TEAE” value (human, in vivo) was 6.9%, the “Hyponatremia: count of events” value (human, in vivo) was 4 and the “Hyponatremia: patients with event” value (human, in vivo) was 4 (21.1%) n (%). The “Insomnia: count of events” value (human, in vivo) was 3, the “Insomnia: patients with event” value (human, in vivo) was 3 (15.8%) n (%) and the “Neutropenia, Grade 3 TEAE” value (human, in vivo) was 6.9%. For the same molecule, the “Neutropenia: count of events” value (human, in vivo) was 2, the “Number of related ≥Grade 3 AEs” value (human, in vivo) was 12 and the “Patients discontinued because of TEAEs” value (human, in vivo) was 14%. The “Patients with SAEs” value (human, in vivo) was 22 (38%) n (%), the “Patients with at least one TEAE” value (human, in vivo) was 57 (98%) n (%) and the “Patients with related AEs” value (human, in vivo) was 18 (64%) n (%). For the same molecule, the “Patients with related Grade 4 TEAEs” value (human, in vivo) was 5.2%, the “Patients with related ≥Grade 3 AEs” value (human, in vivo) was 9 (32%) n (%) and the “Pruritus: count of events” value (human, in vivo) was 5. For the same molecule, the “Pruritus: patients with event” value (human, in vivo) was 4 (21.1%) n (%), the “Psychiatric disorders: count of events” value (human, in vivo) was 6 and the “Psychiatric disorders: patients with event” value (human, in vivo) was 4 (21.1%) n (%). For the same molecule, the “Pyrexia: count of events” value (human, in vivo) was 4, the “Pyrexia: patients with event” value (human, in vivo) was 4 (21.1%) n (%) and the “Rash: count of events” value (human, in vivo) was 4. For the same molecule, the “Rash: patients with event” value (human, in vivo) was 3 (15.8%) n (%), the “SAEs gastrointestinal disorders, patients” value (human, in vivo) was 9% and the “SAEs related to infections, patients” value (human, in vivo) was 16%. For the same molecule, the “Tachycardia: count of events” value (human, in vivo) was 6, the “Tachycardia: patients with event” value (human, in vivo) was 5 (26.3%) n (%) and the “Transaminase elevation, related Grade ≥3 TEAE” value (human, in vivo) was 21%. The “Deaths related to drug” value (in vivo) was “none of them were related to Tenalisib”, the “Dose-limiting toxicities (DLT)” value (in vivo) was “no DLTs” and the “Fatal outcome of related TEAEs” value (in vivo) was “None of the related TEAEs led to a fatal outcome”. The “Grade 4 related TEAEs” value (in vivo) was “two events of ALT increase and one event of sepsis”, the “Number of SAEs assessed to be related” value (in vivo) was “six” and the “Number of SAEs reported” value (in vivo) was “Thirty-seven”. For the same molecule, the “Deaths reported in the study” value (seven deaths) was 12%.
